Laboratory results: ChEMBL document CHEMBL1641575, “Conventional and microwave assisted synthesis of 2-oxo-4-substituted aryl-azetidine derivatives of benzotriazole: a new class of biological compounds” (Bioorg Med Chem Lett, 2011)
In brackets after ≈: the same amount, converted by molar mass.

Assays:
[1] = tested on: Mycobacterium tuberculosis; test: Antitubercular activity against Mycobacterium tuberculosis H37Rv assessed as inhibition of colonies after 30 days by agar microdilution method; assay type: functional
Staphylococcus aureus = test: Antibacterial activity against Staphylococcus aureus assessed as inhibition of visible growth after 48 hrs by agar dilution method; assay type: functional
Escherichia coli = test: Antibacterial activity against Escherichia coli assessed as inhibition of visible growth after 48 hrs by agar dilution method; assay type: functional
Streptococcus pneumoniae = test: Antibacterial activity against Streptococcus pneumoniae assessed as inhibition of visible growth after 48 hrs by agar dilution method; assay type: functional
Candida albicans = test: Antifungal activity against Candida albicans assessed as inhibition of visible growth after 48 hrs by agar dilution method; assay type: functional
Aspergillus fumigatus = test: Antifungal activity against Aspergillus fumigatus assessed as inhibition of visible growth after 48 hrs by agar dilution method; assay type: functional
Aspergillus niger = test: Antifungal activity against Aspergillus niger assessed as inhibition of visible growth after 48 hrs by agar dilution method; assay type: functional
[2] = Cytotoxicity against african green monkey Vero C1008 cells at 0.01 to 0.1 ug/ml by neutral red uptake assay; assay type: cell-based; conditions: chlorocebus sabaeus

Compound	MIC [1]	MIC (Staphylococcus aureus)	MIC (Escherichia coli)	MIC (Streptococcus pneumoniae)	MIC (Candida albicans)	MIC (Aspergillus fumigatus)	MIC (Aspergillus niger)	Activity [2]
O=C1C(Cl)C(c2ccccc2[N+](=O)[O-])N1/N=C/CCn1nnc2ccccc21 (configuration not stated)	> 3.12 mg/L	0.5 mg/L (≈ 1.25 µM)	0.5 mg/L (≈ 1.25 µM)	0.1 mg/L (≈ 0.251 µM)	0.1 mg/L (≈ 0.251 µM)	0.1 mg/L (≈ 0.251 µM)	0.1 mg/L (≈ 0.251 µM)	–
CC[C@@H](CO)NCCN[C@@H](CC)CO [ETHAMBUTOL]	1 mg/L (≈ 4.89 µM)	–	–	–	–	–	–	–
COc1ccccc1C1C(Cl)C(=O)N1/N=C/CCn1nnc2ccccc21 (configuration not stated)	> 6.25 mg/L	1 mg/L (≈ 2.61 µM)	2 mg/L (≈ 5.21 µM)	0.5 mg/L (≈ 1.3 µM)	0.1 mg/L (≈ 0.261 µM)	0.1 mg/L (≈ 0.261 µM)	0.1 mg/L (≈ 0.261 µM)	–
CN[C@@H]1[C@H](O[C@H]2[C@H](O[C@H]3[C@H](O)[C@@H](O)[C@H](N=C(N)N)[C@@H](O)[C@@H]3N=C(N)N)O[C@@H](C)[C@]2(O)C=O)O[C@@H](CO)[C@H](O)[C@H]1O [STREPTOMYCIN]	4 mg/L (≈ 6.88 µM)	–	–	–	–	–	–	–
O=C1C(Cl)C(c2ccc([N+](=O)[O-])cc2)N1/N=C/CCn1nnc2ccccc21 (configuration not stated)	> 1.56 mg/L	0.1 mg/L (≈ 0.251 µM)	0.5 mg/L (≈ 1.25 µM)	0.5 mg/L (≈ 1.25 µM)	0.1 mg/L (≈ 0.251 µM)	0.5 mg/L (≈ 1.25 µM)	0.5 mg/L (≈ 1.25 µM)	–
O=C1C(Cl)C(c2ccccc2Br)N1/N=C/CCn1nnc2ccccc21 (configuration not stated)	> 3.12 mg/L	0.1 mg/L (≈ 0.231 µM)	0.1 mg/L (≈ 0.231 µM)	0.5 mg/L (≈ 1.16 µM)	1 mg/L (≈ 2.31 µM)	0.5 mg/L (≈ 1.16 µM)	0.5 mg/L (≈ 1.16 µM)	–
COc1ccc(C2C(Cl)C(=O)N2/N=C/CCn2nnc3ccccc32)cc1 (configuration not stated)	> 12.5 mg/L	1 mg/L (≈ 2.61 µM)	1 mg/L (≈ 2.61 µM)	0.5 mg/L (≈ 1.3 µM)	0.1 mg/L (≈ 0.261 µM)	0.1 mg/L (≈ 0.261 µM)	0.1 mg/L (≈ 0.261 µM)	–
O=C1C(Cl)C(c2ccccc2Cl)N1/N=C/CCn1nnc2ccccc21 (configuration not stated)	3.12 mg/L (≈ 8.05 µM)	0.5 mg/L (≈ 1.29 µM)	0.1 mg/L (≈ 0.258 µM)	0.1 mg/L (≈ 0.258 µM)	1 mg/L (≈ 2.58 µM)	0.5 mg/L (≈ 1.29 µM)	0.5 mg/L (≈ 1.29 µM)	–
O=C1C(Cl)C(c2ccccc2)N1/N=C/CCn1nnc2ccccc21 (configuration not stated)	> 12.5 mg/L	1 mg/L (≈ 2.83 µM)	1 mg/L (≈ 2.83 µM)	0.5 mg/L (≈ 1.41 µM)	1 mg/L (≈ 2.83 µM)	1 mg/L (≈ 2.83 µM)	1 mg/L (≈ 2.83 µM)	Non-toxic
O=C1C(Cl)C(c2ccc(Cl)cc2)N1/N=C/CCn1nnc2ccccc21 (configuration not stated)	> 3.12 mg/L	0.1 mg/L (≈ 0.258 µM)	0.1 mg/L (≈ 0.258 µM)	0.5 mg/L (≈ 1.29 µM)	0.5 mg/L (≈ 1.29 µM)	0.5 mg/L (≈ 1.29 µM)	1 mg/L (≈ 2.58 µM)	–
CC1COc2c(N3CCN(C)CC3)c(F)cc3c(=O)c(C(=O)O)cn1c23 (configuration not stated) [OFLOXACIN]	–	0.1 mg/L (≈ 0.277 µM)	0.1 mg/L (≈ 0.277 µM)	0.1 mg/L (≈ 0.277 µM)	–	–	–	–
O=C1C(Cl)C(c2cccc(Br)c2)N1/N=C/CCn1nnc2ccccc21 (configuration not stated)	6.25 mg/L (≈ 14.4 µM)	0.1 mg/L (≈ 0.231 µM)	0.1 mg/L (≈ 0.231 µM)	0.1 mg/L (≈ 0.231 µM)	0.5 mg/L (≈ 1.16 µM)	0.1 mg/L (≈ 0.231 µM)	0.1 mg/L (≈ 0.231 µM)	–
Clc1ccc(COC(Cn2ccnc2)c2ccc(Cl)cc2Cl)c(Cl)c1 (configuration not stated) [MICONAZOLE]	–	–	–	–	0.1 mg/L (≈ 0.24 µM)	0.1 mg/L (≈ 0.24 µM)	0.1 mg/L (≈ 0.24 µM)	–
